Results: patent US12186304B2, “Method for treating cancer by combination of IAP inhibitor and modulator of immune checkpoint molecule” (ASCENTAGE PHARMA (SUZHOU) CO., LTD., priority 2018, dated 2025)

Columns and labels:
CT26 colorectal cancer = experiment: Combination therapy in CT26 mouse colorectal cancer model; format: in vivo; conditions: APG-1387 0.2 mg/kg i.v. once daily, docetaxel 8 mg/kg i.p. once weekly, anti-PD-1 200 μg/mouse i.p. twice weekly
Experimental: (§1) Cell inoculation method was used to establish a […] tumor-immunized normal mouse subcutaneous homograft tumor model: tumor cells in logarithmic growth phase were collected, counted, and then resuspended in 1×PBS. The concentration of the cell suspension was adjusted to 2.5-5×10^7/mL. Tumor cells, 5-10×10^6/0.2 mL/mouse, were inoculated subcutaneously in the right back of the immunized normal mouse with a 1 mL syringe ([…]). All animal experimental operations were strictly in accordance with standards for use and management of laboratory animals by Gima Gene Co., Ltd and Suzhou Yasheng Pharmaceutical Co., Ltd. Relevant parameters were calculated with reference to China's NMPA “Guidelines for Non-clinical Research Techniques of Cytotoxic Antitumor Drugs”.
Animal weight and tumor size were measured twice a week during the experiment. Animals were observed daily for status and the occurrence of death. Routine monitoring included the effects of tumor growth and treatment on the normal behaviors of animals, specifically including the activity, feeding and drinking, weight gain or loss, eyes, clothing hair, as well as other abnormalities of the laboratory animals. The deaths and clinical symptoms observed during the experiment were recorded in the original data. The whole process of administration, measurement of mouse weight and tumor volume was carried out in an ultra-clean bench. According to requirements of the experimental program, plasma and tumor tissue were collected, weighed and photographed for record after the end of last administration. Plasma and tumor samples were frozen at −80° C. for later use.
(§2) Tumor volume (TV) was calculated as TV=a×b^2/2, wherein a and b represented the length and width of tumor measurement, respectively.
(§3) Relative tumor volume (RTV) was calculated as RTV=Vt/V1, wherein V1 was the tumor volume at the time of grouping administration, and Vt was the tumor volume measured on day t after administration.
The evaluation index of anti-tumor activity was relative tumor proliferation rate T/C (%), and was calculated as: relative tumor proliferation rate T/C (%)=(TRTV/CRTV)×100%, wherein TRTV was RTV in treatment group, and CRTV was RTV in vehicle control group.
Tumor remission rate (%) was the number of SD (stable disease), PR (partial regression) and CR (complete regression) in tumor-bearing mice after treatment divided by the total number of mice in that group×100%. CR refers to the complete regression of the tumor, which means the tumor is inaccessible after treatment. PR refers to the partial regression of the tumor, which means tumor volume becomes smaller than before treatment. SD refers to stable tumor progression, which means tumor volume is the same as before treatment. Change of body weight (%)=(measurement of body weight−body weight when grouping)/body weight when grouping×100%.
Efficacy evaluation criteria: according to China's NMPA “Guidelines for Non-clinical Research Techniques of Cytotoxic Antitumor Drugs” (November 2006), T/C (%) value 40% and p<0.05 by statistical analysis were considered as efficacious. If the weight loss of mice exceeded 20%, or the drug-related death percentage exceeded 20%, the drug dose was considered to be severely toxic.
According to Clarke R., Issues in experimental design and endpoint analysis in the study of experimental cytotoxic agents in vivo in breast cancer and other models [J].
A tumor model of CT26 colorectal cancer mouse was established, and the combined anti-tumor effect of APG-1387 with anti-PD-1 antibody and docetaxel was evaluated on this model. The administration regimen was as follows:
APG-1387 monotherapy group: 0.2 mg/kg, intravenous injection, once daily for a total of 17 days;
Docetaxel monotherapy group: 8 mg/kg, intraperitoneal injection, once weekly for a total of 17 days;
Anti-PD-1 antibody monotherapy group: 200 μg/mouse, intraperitoneal injection, twice weekly for a total of 2.5 weeks (i.e., 17 days); […]

MC38 colon cancer = experiment: Tumor growth in MC38 homologous mouse colon cancer model; format: in vivo
Experimental: as §1, §2, §3
The evaluation index of anti-tumor activity was relative tumor proliferation rate T/C (%), and was calculated as: relative tumor proliferation rate T/C (%)=(TRTV/CRTV)×100%, wherein TRTV was RTV in treatment group, and CRTV was RTV in vehicle control group. […]

[1] = test system: advanced or metastatic solid tumor; experiment: Phase I study: anti-tumor activity in all tumor types; format: in vivo, human
[2] = Phase I study: APG-1387 pharmacokinetics in plasma (LC-MS/MS); format: in vivo, human
Experimental: APG-1387 was IV administered for 30 minutes once weekly in a 21-day-cycle.

[3] = test system: effector memory T cells and NK cells; experiment: Lymphocyte analysis (flow cytometry) in MC38 tumor-bearing mice; format: in vivo, mouse; conditions: MC38 model; APG-1387 0.2 mg/kg
Experimental: In the experiment of tumor-infiltrated lymphocyte analysis, tissue samples such as spleen, draining lymph node, ascites, tumor or other tissues were collected 24 hours after the last drug administration. A single cell suspension of the spleen and draining lymph nodes was obtained, and the red blood cells were lysed after centrifugation, and the cells were filtered, followed by flow cytometric staining and flow cytometry. The tumor tissue was cut and centrifuged, and the tissue was digested, the cells were filtered. Ficoll was used to separate individual nuclei. Individual nuclei were collected for corresponding antibody flow staining and flow cytometry Ascites samples were collected and centrifuged, and the cells were filtered and subjected to flow cytometry staining and flow cytometry.
The spleen, draining lymph nodes and tumor tissues of MC38 tumor-bearing mice were collected 24 hours after the last administration. Ascites of ID8-Luc tumor mice, tumor tissues of PLC/PRF/5 tumor mice were subjected to tumor infiltrating lymphocyte analysis. The proportion of lymphocytes in the APG-1387 treatment group and control group was analyzed to explore the potential mechanism of anti-tumor effect of APG-1387 combined with anti-PD-1 antibody.

spleen cells = experiment: Activation of spleen cells of healthy C57BL/6 mice in vivo; conditions: 0.05, 0.2 and 0.8 mg/kg i.p. qd x 7 doses
Experimental: Next, we intraperitoneally administered different dosages of APG-1387 to healthy C57BL/6 mice every day. Each group has 3 mice. After 7 days of continuous administration, the spleen was taken to obtain a single cell suspension. NK, macrophage, dendritic cells and T cells were analyzed by flow cytometry to obtain the proportion of these subsets, thus evaluate the effect of APG-1387 on each immune cell subpopulation.

[4] = over the range of 20 to 45 mg, preliminary PK data

Compound: CN[C@@H](C)C(=O)N[C@H]1CN(S(=O)(=O)c2cccc(S(=O)(=O)N3CC[C@H]4CC[C@@H](C(=O)NC(c5ccccc5)c5ccccc5)N4C(=O)[C@@H](NC(=O)[C@H](C)NC)C3)c2)CC[C@H]2CC[C@@H](C(=O)NC(c3ccccc3)c3ccccc3)N2C1=O [APG-1387]
- T/C (%) value on day 18 after administration (CT26 colorectal cancer): 105%
- RTV on day 14 after administration (MC38 colon cancer; APG-1387 0.2 mg/kg i.v., anti-PD-1 5 mg/kg i.p., twice weekly, 2 times): 11.0 ± 1.2
- T/C (%) value on day 14 after administration (MC38 colon cancer; day 14): 70%
- DCR (disease control rate, SD above) [1]: 6/24
- ORR (objective response rate, CR + PR) [1]: 0
- Best response: CR ([1]; patients): 0
- Best response: PD ([1]; patients): 15
- Best response: PR ([1]; patients): 0
- Best response: SD ([1]; patients): 6
- increase in AUC [2, 4]: approximately dose proportional
- increase in Cmax [2, 4]: approximately dose proportional
- accumulation ([2]; weekly dosing regimen): no significant accumulation
- proportion of NK cells in the spleen and lymph nodes [3]: no significant effect
- proportion of 9 types of immune cells in the spleen (spleen cells): no effect
